Assay: Single-dose intravenous and oral pharmacokinetic study in mice
Format: in vivo, Balb/c mice
Settings: mouse; male Balb/c mice, PO 50 mg/kg, plasma
Protocol: Twenty-seven male Balb/c mice were randomly divided into 3 groups, 9 mice in each group. Group 1: mice received an intravenous (IV) dose of Compound 1 at 5 mg/kg with a dosing volume of 5 mL/kg. Blood samples were collected at 0.083, 0.25, 0.5, 1, 2, 4, 6, 8, and 24 hours post-dose using a staggered sampling method. Group 2: mice received an oral (gavage) dose of Compound 1 at 50 mg/kg with a dosing volume of 10 mL/kg. Blood samples were collected at 0.25, 0.5, 1, 2, 4, 6, 8, and 24 hours post-dose using a staggered sampling method. Group 3: mice received an oral (gavage) dose of palbociclib at 50 mg/kg with a dosing volume of 10 mL/kg. Blood samples were collected at 1, 3, 4, 6, 8, 10, 12, and 24 hours post-dose using a staggered sampling method. For each group, 3 samples were collected at each time point. Plasma was separated by centrifugation and stored at −70° C. The concentrations of Compound 1 or palbociclib in plasma were measured using LC-MS/MS.

AUC(0-t): 18300 ng·h/mL
Cmax: 1320 ng/mL
Tmax: 8 h
half-life: 7.64 h
SMILES: CC(=O)c1c(C)c2cnc(Nc3ccc(N4CCNCC4)cn3)nc2n(C2CCCC2)c1=O [palbociclib, reference compound]

Source: patent US20260207604A1, “COMPOUND AND USE THEREOF” (ONQUALITY PHARMACEUTICALS CHINA LTD., priority 2022, published 2026)
